Tested on: primary tumor and secondary tumor
Test: Primary and secondary tumor model for anticancer immune system construction
Type: in vivo, mouse
Details: FIG. 30
Excerpt: It was verified whether, under the treatment of cGAMP and the compound of Formula 1 in combination, in addition to the results of increasing the antigen presentation efficacy that were confirmed in FIGS. 18 to 21, the anticancer immune system was constructed throughout the organism also in the animal model, so that activated cytotoxic T cells were able to remove cancer cells in other locations to which drugs are not injected.

[1] = combination with cGAMP compared with single administration of cGAMP

COc1ccc(CC2=CN(c3ccc(C(=O)NC[C@H]4CCCO4)cc3[N+](=O)[O-])[C@H](C(C)C)C(=O)N2Cc2ccc(O)cc2)cc1 [Formula 1, 4-((R)-4-(4-hydroxybenzyl)-2-isopropyl-5-(4-methoxybenzyl)-3-oxo-3,4-dihydropyrazin-1 (2H)-yl)-3-nitro-N-(((R)-tetrahydrofuran-2-yl)methyl)benzamide]
final tumor mass of primary tumor [1]: reduced | primary tumor growth [1]: inhibited | tumor death in secondary carcinomas (secondary tumor not directly injected): tumor death also effectively occurred

From patent publication US20250127778A1, “CANCER IMMUNOTHERAPY COMPOSITION CONTAINING INTERACTION INHIBITOR OF STING AND TRIM29 AS ACTIVE INGREDIENT” (SPARK BIOPHARMA, INC, priority 2021, published 2025)
